# Assays:
# [1] = Caco-2 Permeability Assay; format: in vitro ADME, human; settings: human
# Source text: The compounds of the invention may be tested for biological activity as MPO inhibitors by methods known to those skilled in the art. In addition, methods such as, for example, a Caco-2 assay, may be used to test the bioavailability of the compounds of the invention. A description of a Caco-2 permeability assay is as follows:
# • The Caco-2 monolayer is widely used across the pharmaceutical industry as an in vitro model of the human small intestinal mucosa to predict the absorption of orally administered drugs.^1-4 • The Caco-2 cell model mimics processes such as transcellular transport, paracellular transport, and some aspects of efflux and active transport. • Readout: Papp (A→B), Papp (B→A), Efflux ratio, % Recovery • Controls: with and without Pgp inhibitor; Atenolol, Propanolol, Taxel-1
# The Caco-2 cells are cultured to confluency, trypsinized and seeded onto a filter transwell insert at a density of ^˜32,000 cells/well in DMEM cell culture medium. Cells are grown in a humidified atmosphere of 5% CO2 at 37° C. Following an overnight attachment period (24 h after seeding), the cell medium is replaced with fresh medium in both the apical and basolateral compartments every other day. The cell monolayers are used for transport studies 21 days post seeding after measuring the TEER values ([…]). The apical sides and basolateral sides are washed consecutively with HBSS 2.5% (v/v), HEPES (pH 7.4) or HBSS 2.5% (v/v), HEPES 10% (v/v), and Fetal Bovine Serum (pH 7.4) at 37° C. in an incubator under an atmosphere of 5% CO2.
# Donor working solution is prepared by dilution of DMSO stock of test article or positive control with transport media to 10 μM.
# For A→B directional transport, the donor working solution (with test article or positive control, with or without Pgp inhibitor) is added to the apical (A) compartment and the transport media as receiver working solution is added to the basolateral (B) compartment. For B→A directional transport, the donor working solution (with positive control or test article, with or without Pgp inhibitor) is added to the basolateral (B) compartment and transport media as receiver working solution is added to the apical (A) compartment.
# The cells are incubated in a humidified atmosphere of 5% CO2 at 37° C. for 90 minutes.
# At the end of the incubation, samples are taken from both donor and receiver compartments and transferred into 96-well assay plates containing internal standard solution (IS) in each well. After centrifugation, the supernatant solutions are transferred to clean 96 well plates and analyzed by LC-MS/MS. The MS detection is performed using a Sciex API 4000 instrument. Each compound is analyzed by reversed phase HPLC.
# The parameters Papp (apparent permeability) and efflux ratio are calculated as follows:
# Papp=(dQ/dt)×(1/C0)×(1/A)
# Efflux ratio=Papp[B→A]/Papp[A→B]
# where dQ/dt is the permeability rate, C0 is the initial concentration in the donor compartment, and A is the surface area of the cell monolayer (0.33 cm^2). The Papp value is a rate measured in cm/s. Calculated Papp is ranked as low (<[…]), moderate (1-10×10^−6 cm/s), and high (>[…]).
# Comparing the efflux ratios generated in the presence and absence of a Pgp inhibitor identifies whether the test article is a Pgp substrate.
# Recovery is calculated as follows:
# % Recovery=(Total compound mass in donor and receiver compartments at the end of the incubation/Initial compound mass in the donor compartment)×100.
# Plasma Stability = format: in vitro ADME, human
# In short: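 Compounds incubated at 1 μM in fresh human plasma for 1 hour at 37° C, then protein-precipitated with acetonitrile/formic acid containing internal standard. Remaining parent measured by LC-MS/MS in triplicate, expressed as percent of control remaining.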
# [2] = Stability in Simulated Gastric Fluid (SGF); format: in vitro ADME; parameters: key: % parent compound remaining relative to 0-minute sample
# In short: (§1)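 Percent parent compound remaining, by LC-MS/MS against the 0-minute sample, is reported after incubation at 2 μg/mL (final) in pepsin-containing SGF at pH 1.2 or pancreatin-containing SIF at pH 6.8. Incubations run at 37° C for up to 60 minutes.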
# [3] = Stability in Simulated Intestinal Fluid (SIF); format: in vitro ADME; parameters: key: % parent compound remaining relative to 0-minute sample
# In short: as §1
# [4] = Caco-2, pH 7.4, Caco-2 monolayer, the 15th table
# [5] = % remaining at 1 h in human plasma, the 15th table
# [6] = % remaining at 1 h in simulated gastric fluid, the 15th table
# [7] = % remaining at 1 h in simulated intestinal fluid, the 15th table
# [8] = Caco-2, pH 7.4, Caco-2 monolayer
# [9] = simulated gastric fluid, at 1 h
# [10] = simulated intestinal fluid, at 1 h
# [11] = Caco-2, pH 7.4, donor 10 μM, 90 minutes, 37° C., direction not given
# [12] = % remaining at 1 h, human plasma, 1 μM, 37° C.
# [13] = % remaining at 1 h, SGF with pepsin pH 1.2, 2 μg/mL, 37° C.
# [14] = % remaining at 1 h, SIF with pancreatin pH 6.8, 2 μg/mL, 37° C.
structure (smiles),measurement,setting,value
CC(C)OCCn1c(SCOC(=O)NCc2ccccc2)nc(=O)c2c1ccn2C(=O)NCc1ccccc1 [Example 193],"Papp at 90 min, 10 µM",[1]; [4],31.6 ×10⁻⁶ cm/s
same,human Plasma stability,Plasma Stability; [5],95% remaining
same,SGF,[2]; [6],98% remaining
same,SIF,[3]; [7],57% remaining
CC(C)OCCn1c(SCOC(=O)N(C)c2ccccc2F)nc(=O)c2[nH]ccc21 [Example 239],"Papp at 90 min, 10 µM",[1]; [8],11.7 ×10⁻⁶ cm/s
same,human Plasma stability,"Plasma Stability; human plasma, at 1 h",85% remaining
same,SGF,[2]; [9],99% remaining
same,SIF,[3]; [10],96% remaining
Cc1cccc(N(C)C(=O)OCn2c(=O)c3c(ccn3COC(=O)N(C)c3cccc(C)c3)n(CCOC(C)C)c2=S)c1 [Example 247],"Papp at 90 min, 10 µM",[1]; [8],3.99 ×10⁻⁶ cm/s
same,human Plasma stability,"Plasma Stability; human plasma, at 1 h",31% remaining
same,SGF,[2]; [9],64% remaining
same,SIF,[3]; [10],81% remaining
"CC(C)OCCn1c(=S)[nH]c(=O)c2c1ccn2COC(=O)CCCCNC(=O)[C@@H](N)C(C)C [Example 12, Trifluoroacetic acid {4-oxo-1-[2-(propan-2-yloxy)ethyl]-2-sulfanylidene-1H,2H,3H,4H,5H-pyrrolo[3,2-d]pyrimidin-5-yl}methyl 5-[(2S)-2-amino-3-methylbutanamido]pentanoate]","Papp at 90 min, 10 µM",[1]; [11],0.4 ×10⁻⁶ cm/s
same,human Plasma stability,Plasma Stability; [12],76%
same,SGF,[2]; [13],100%
same,SIF,[3]; [14],94%
"CC(C)OCCn1c(=S)[nH]c(=O)c2c1ccn2COC(=O)[C@@H]1CCC(=O)N1 [Example 86, {4-Oxo-1-[2-(propan-2-yloxy)ethyl]-2-sulfanylidene-1H,2H,3H,4H,5H-pyrrolo[3,2-d]pyrimidin-5-yl}methyl(2S)-5-oxopyrrolidine-2-carboxylate]","Papp at 90 min, 10 µM",[1]; [11],0.24 ×10⁻⁶ cm/s
same,human Plasma stability,Plasma Stability; [12],0%
same,SGF,[2]; [13],98%
same,SIF,[3]; [14],17%
"CC(C)OCCn1c(=S)n(COC(=O)[C@@H](Cc2ccccc2)NC(=O)OC(C)(C)C)c(=O)c2c1ccn2COC(=O)[C@@H](Cc1ccccc1)NC(=O)OC(C)(C)C [Example 307, [3-({[(2R)-2-{[(tert-butoxy)carbonyl]amino}-3-phenylpropanoyl]oxy}methyl)-4-oxo-1-[2-(propan-2-yloxy)ethyl]-2-sulfanylidene-1H,2H,3H,4H,5H-pyrrolo[3,2-d]pyrimidin-5-yl]methyl (2R)-2-{[(tert-butoxy)carbonyl]amino}-3-phenylpropanoate]","Papp at 90 min, 10 µM","[1]; Caco-2, pH 7.4",0.334 ×10⁻⁶ cm/s
same,human Plasma stability,Plasma Stability; % remaining @ 1 h,99% @ 1 h
same,SGF,[2]; % remaining @ 1 h,26% @ 1 h
same,SIF,[3]; % remaining @ 1 h,43% @ 1 h
"CC(C)OCCn1c(=S)[nH]c(=O)c2c1ccn2COC(=O)[C@@H](N)Cc1ccccc1.O=C(O)C(F)(F)F [Example 308, trifluoroacetic acid {4-oxo-1-[2-(propan-2-yloxy)ethyl]-2-sulfanylidene-1H,2H,3H,4H,5H-pyrrolo[3,2-d]pyrimidin-5-yl}methyl (2S)-2-amino-3-phenylpropanoate]","Papp at 90 min, 10 µM","[1]; Caco-2, pH 7.4",< 0.364 ×10⁻⁶ cm/s
same,human Plasma stability,Plasma Stability; % remaining @ 1 h,2.5% @ 1 h
same,SGF,[2]; % remaining @ 1 h,97% @ 1 h
same,SIF,[3]; % remaining @ 1 h,44% @ 1 h
"COCCOCCN(C)C(=O)OCSc1nc(=O)c2c(ccn2COC(=O)N(C)CCOCCOC)n1CCOC(C)C [Example 89, (2-{[({[2-(2-methoxyethoxy)ethyl](methyl)carbamoyl}oxy)methyl]sulfanyl}-4-oxo-1-[2-(propan-2-yloxy)ethyl]-1H,4H,5H-pyrrolo[3,2-d]pyrimidin-5-yl)methyl N-[2-(2-methoxyethoxy)ethyl]-N-methylcarbamate]","Papp at 90 min, 10 µM",[1]; [11],0.488 ×10⁻⁶ cm/s
same,human Plasma stability,Plasma Stability; [12],100%
same,SGF,[2]; [13],99%
same,SIF,[3]; [14],65%
"CC(C)OCCn1c(=S)n(COC(=O)[C@H](C)N)c(=O)c2c1ccn2COC(=O)[C@H](C)N.O=C(O)C(F)(F)F.O=C(O)C(F)(F)F [Example 289, bis(trifluoroacetic acid) [3-({[(2S)-2-aminopropanoyl]oxy}methyl)-4-oxo-1-[2-(propan-2-yloxy)ethyl]-2-sulfanylidene-1H,2H,3H,4H,5H-pyrrolo[3,2-d]pyrimidin-5-yl]methyl (2S)-2-aminopropanoate]","Papp at 90 min, 10 µM","[1]; Caco-2, pH 7.4",< 0.366 ×10⁻⁶ cm/s
same,human Plasma stability,Plasma Stability; % remaining @ 1 h,39% @ 1 h
same,SGF,[2]; % remaining @ 1 h,100% @ 1 h
same,SIF,[3]; % remaining @ 1 h,97% @ 1 h
Cc1ccc(N(C)C(=O)OCSc2nc(=O)c3[nH]ccc3n2CCOC(C)C)cc1 [Example 248],"Papp at 90 min, 10 µM",[1]; [8],23.5 ×10⁻⁶ cm/s
same,human Plasma stability,"Plasma Stability; human plasma, at 1 h",96% remaining
same,SGF,[2]; [9],99% remaining
same,SIF,[3]; [10],98% remaining
"COC(=O)[C@H](CCCCNC(=O)OC(C)(C)C)NC(=O)n1ccc2c1c(=O)[nH]c(=S)n2CCOC(C)C [Example 103, Methyl (2S)-6-{[(tert-butoxy)carbonyl]amino}-2-({4-oxo-1-[2-(propan-2-yloxy)ethyl]-2-sulfanylidene-1H,2H,3H,4H,5H-pyrrolo[3,2-cl]pyrimidine-5-carbonyl}amino)hexanoate]","Papp at 90 min, 10 µM",[1]; [11],13.5 ×10⁻⁶ cm/s
same,human Plasma stability,Plasma Stability; [12],92%
same,SGF,[2]; [13],96%
same,SIF,[3]; [14],96%
CC(C)OCCn1c(=S)[nH]c(=O)c2c1ccn2COC(=O)CN [Example 284],"Papp at 90 min, 10 µM",[1]; [8],1.55 ×10⁻⁶ cm/s
same,human Plasma stability,"Plasma Stability; human plasma, @ 1 h",0% @ 1 h
same,SGF,"[2]; simulated gastric fluid, @ 1 h",100% @ 1 h
same,SIF,"[3]; simulated intestinal fluid, @ 1 h",6% @ 1 h
CC(C)OCCn1c(=S)[nH]c(=O)c2c1ccn2COC(=O)Oc1ccccc1F [Example 238],"Papp at 90 min, 10 µM",[1]; [8],< 0.339 ×10⁻⁶ cm/s
same,human Plasma stability,"Plasma Stability; human plasma, at 1 h",1% remaining
same,SGF,[2]; [9],13% remaining
same,SIF,[3]; [10],1% remaining
"CC(C)OCCn1c(=S)[nH]c(=O)c2c1ccn2COC(=O)CCN [Example 8, Trifluoroacetic acid {4-oxo-1-[2-(propan-2-yloxy)ethyl]-2-sulfanylidene-1H,2H,3H,4H,5H-pyrrolo[3,2-d]pyrimidin-5-yl}methyl 3-aminopropanoate]","Papp at 90 min, 10 µM",[1]; [11],0.46 ×10⁻⁶ cm/s
same,human Plasma stability,Plasma Stability; [12],45%
same,SGF,[2]; [13],97%
same,SIF,[3]; [14],68%
"CC(C)OCCn1c(=S)[nH]c(=O)c2c1ccn2COC(=O)CCNC(=O)OC(C)(C)C [Example 6, {4-Oxo-1-[2-(propan-2-yloxy)ethyl]-2-sulfanylidene-1H,2H,3H,4H,5H-pyrrolo[3,2-d]pyrimidin-5-yl}methyl 3-{[(tert-butoxy)carbonyl]amino}propanoate]","Papp at 90 min, 10 µM",[1]; [11],17.9 ×10⁻⁶ cm/s
same,human Plasma stability,Plasma Stability; [12],59%
same,SGF,[2]; [13],82%
same,SIF,[3]; [14],67%
CC(C)NC(=O)OCSc1nc(=O)c2[nH]ccc2n1CCOC(C)C [Example 196],"Papp at 90 min, 10 µM",[1]; [4],19.5 ×10⁻⁶ cm/s
same,human Plasma stability,Plasma Stability; [5],99% remaining
same,SGF,[2]; [6],99% remaining
same,SIF,[3]; [7],98% remaining
CC(C)CNC(=O)OCSc1nc(=O)c2c(ccn2C(=O)NCC(C)C)n1CCOC(C)C [Example 187],"Papp at 90 min, 10 µM",[1]; [4],33.1 ×10⁻⁶ cm/s
same,human Plasma stability,Plasma Stability; [5],96% @ 1 h
same,SGF,[2]; [6],97% @ 1 h
same,SIF,[3]; [7],97% @ 1 h
